From patent publication US8829004B2, “Method for inducing tumor apoptosis by increasing nitric oxide levels” (Universitätsklinikum Freiburg, priority 2006, dated 2014)

Experiments:
[1] = test system: L929 cells; experiment: Apoptosis induction by azoles in L929 cells with TGF-beta; assay type: cell-based, murine; conditions: 2 mM histidine; 3-AT at 25 mM
Method: FIG. 3 discloses experimental data obtained with 25000 L929 cells in 48 well tissue culture clusters in the presence of 20 ng/ml TGF-beta. Itraconazole was added at the indicated concentrations, in the presence or absence of 2 mM histidine (singlet oxygen scavenger). The percentage of apoptotic cells was determined after 37 hrs.
The dashed lines indicate the percentage of apoptotic cells obtained when the tumor cell catalase was blocked by 25 mM […] (3-AT).
FIG. 4 discloses experimental data obtained with 25000 L929 cells in 48 well tissue culture clusters in the presence of 20 ng/ml TGF-beta. “No addition” represents the control without addition of compound. […] The percentage of apoptotic cells was determined after 63 hrs.
The first step comprises contacting tumor cells in media comprising TGF-beta with the test compounds to be analyzed for their properties of apoptosis induction. After a specific incubation time, the extent of apoptosis induction is determined, e.g. after two days. Methods for determining the apoptosis in cells in a quantitative manner are well known in the art and are for example described by Jürgensmeier et al. (Cancer Research 1994; 54:393-398). […] These features of apoptotic cells can be determined through phase contrast microscopy or after chromatin staining with fluorescent dyes, followed by fluorescence microscopy. […]

[2] = test system: SKNMC cells (human neuroblastoma); experiment: Apoptosis induction in SKNMC cells with ROS pathway inhibitors (FIG. 5); assay type: cell-based
Method: FIG. 5 discloses experimental data obtained with 25 000 SKNMC cells (human neuroblastoma) in 48 well tissue culture clusters (without addition of TGF-beta). […] Control assays contained the respective compound in the absence of any inhibitors. Parallel assays contained either 200 μM of the NADPH (nicotinamide adenine dinucleotide phosphate) oxidase inhibitor AEBSF, 10 μM of the nNOS-specific NO synthetase inhibitor 3-Br-7-Ni (3-bromo-7-nitroindazole), 2 mM of the singlet oxygen scavenger histidine or 50 mM of the HOCl scavenger taurine. The percentage of apoptotic cells was determined at the indicated time points.
For all inducers, apoptosis induction was dependent on superoxide anion generation and NO synthesis, as it was blocked by AEBSF and 3-Br-7-Ni respectively. In contrast to the NO/peroxynitrite pathway, the HOCl pathway played no role for apoptosis induction in this particular line. Apoptosis induction by all azoles tested depended on singlet oxygen action, as it was blocked by histidine.

SMILES: Nc1nc[nH]n1 [3-AT, 3-aminotriazole]
- effect of histidine on induced apoptosis [1]: not blocked by histidine
- effect of histidine on induced apoptosis (singlet oxygen dependence) ([2]; 2 mM histidine): singlet oxygen is not required
- apoptosis induction (percentage of apoptotic cells) ([2]; 12.5 or 25 μg/ml azole, 75 mM 3-AT, without TGF-beta): induced apoptosis in the tumor cells to a significant extent
